Test [1] deals with T1, Cdk12/CycK (Homo sapiens, UniProt Q9NYV4).
T1 construct: GST (N, cleaved yes); made in house; host or cells: Sf9 insect cells (MultiBacTurbo), co-expressed with S. cerevisiae CAK1
The experiment in a line: Thermal stability (nanoDSF) of Cdk12/CycK. The format is binding. To be noted: Cdk12/CycK 5 μM, 3-fold molar excess of compound. An excerpt: (§1) Synthetic genes, codon optimized for expression in Sf9 insect cells, comprising the kinase domain of human Cdk12 (residues 714–1063, UniProt accession number Q9NYV4) and cyclin box domains of human cyclin K (residues 1–267, UniProt accession number O75909) were purchased from GeneArt. The coding sequence of Cdk12 was integrated into the pACEBac1 acceptor vector, while CycK was introduced into pIDK donor vector. Both target vectors underwent modification, wherein a GST-affinity tag followed by a tobacco etch virus (TEV) protease cleavage site was introduced upstream of the protein coding sequence. A pIDC donor vector was employed to insert full-length CDK-activating kinase CAK1 (UniProt accession number P43568) from S. cerevisiae devoid of any affinity tag. Cre recombination was performed to combine all three vectors in vitro, resulting in fused vectors suitable for co-expression in Sf9 insect cells. […]
To investigate the thermal stability of proteins and protein complexes in solution, as well as to examine the impact of small molecular compounds on the proteins stability, the nano-differential scanning fluorimetry (nanoDSF) method was employed using a Prometheus NT.48 (NanoTemper) device. […] Thermal stability was monitored over a temperature range of 20–90 °C with a linear gradient of 1.5 °C min^−1, utilizing the PR.ThermControl software (NanoTemper). […]

Test [2] concerns the target T2, Cdk12/CycK and DDB1ΔB (Homo sapiens, UniProt Q16531+Q9NYV4, DEL396-705).
T2 construct: the Cdk12 (714–1063)/CycK (1–267) complex and the DDB1ΔB protein; made in house; host or cells: Sf9 insect cells (MultiBacTurbo)
The experiment in a line: Thermal stability (nanoDSF) of mixture of DDB1ΔB and Cdk12/CycK. In kind it is binding. To be noted: Cdk12/CycK and DDB1ΔB 5 μM each, 3-fold molar excess of compound.
Text: as §1, with “tag.” for “tag. Cre recombination was performed to combine all three vectors in vitro, resulting in fused vectors suitable for co-expression in Sf9 insect cells.”
The human wild-type BPB domain deletion version (ΔBPB: amino acids 396–705 deleted) of DNA damage-binding protein 1 (DDB1) (residues 1–1140 Δ396–705, UniProt accession number Q16531) was PCR-amplified from AddGene plasmid #124213 and inserted into a pACEBac1 vector, which had been modified with a N-terminal His6 affinity tag. […] After loading the supernatant, the column was washed with 10 column volumes (CV) lysis buffer to achieve baseline levels of absorbance at 280 nm wavelength, followed by 3 CV of wash buffer (50 mM Tris pH 8, 200 mM NaCl, 1 mM TCEP, 50 mM Imidazole) and another round of lysis buffer (5 CV). […]

Here are results for two molecules from publication PMC11494886, “Discovery and design of molecular glue enhancers of CDK12–DDB1 interactions for targeted degradation of cyclin K” (RSC Chemical Biology, 2024).

Each structure is given as a SMILES string.

T2 sequence (Q9NYV4 714-1063, stated change not applied): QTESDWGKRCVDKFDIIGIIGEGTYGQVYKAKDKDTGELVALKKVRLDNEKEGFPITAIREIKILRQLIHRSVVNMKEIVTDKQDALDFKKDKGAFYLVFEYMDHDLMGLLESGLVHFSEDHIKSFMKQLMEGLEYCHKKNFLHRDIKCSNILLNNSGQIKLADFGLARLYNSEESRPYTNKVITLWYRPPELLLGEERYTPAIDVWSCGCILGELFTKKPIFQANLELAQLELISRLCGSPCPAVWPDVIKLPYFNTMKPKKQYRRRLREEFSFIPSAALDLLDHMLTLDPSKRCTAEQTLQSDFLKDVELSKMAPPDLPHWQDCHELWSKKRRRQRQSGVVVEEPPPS
T2 sequence (O75909 1-267 partner limits assumed): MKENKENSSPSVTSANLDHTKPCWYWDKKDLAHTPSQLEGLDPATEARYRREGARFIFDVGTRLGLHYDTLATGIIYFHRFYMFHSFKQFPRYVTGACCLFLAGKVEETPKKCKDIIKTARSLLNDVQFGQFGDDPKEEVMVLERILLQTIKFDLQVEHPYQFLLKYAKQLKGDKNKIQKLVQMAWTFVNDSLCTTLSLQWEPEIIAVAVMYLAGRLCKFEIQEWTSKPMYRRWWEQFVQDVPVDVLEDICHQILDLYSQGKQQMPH
T2 sequence (Q16531 with tags, fused parts or gaps DEL396-705): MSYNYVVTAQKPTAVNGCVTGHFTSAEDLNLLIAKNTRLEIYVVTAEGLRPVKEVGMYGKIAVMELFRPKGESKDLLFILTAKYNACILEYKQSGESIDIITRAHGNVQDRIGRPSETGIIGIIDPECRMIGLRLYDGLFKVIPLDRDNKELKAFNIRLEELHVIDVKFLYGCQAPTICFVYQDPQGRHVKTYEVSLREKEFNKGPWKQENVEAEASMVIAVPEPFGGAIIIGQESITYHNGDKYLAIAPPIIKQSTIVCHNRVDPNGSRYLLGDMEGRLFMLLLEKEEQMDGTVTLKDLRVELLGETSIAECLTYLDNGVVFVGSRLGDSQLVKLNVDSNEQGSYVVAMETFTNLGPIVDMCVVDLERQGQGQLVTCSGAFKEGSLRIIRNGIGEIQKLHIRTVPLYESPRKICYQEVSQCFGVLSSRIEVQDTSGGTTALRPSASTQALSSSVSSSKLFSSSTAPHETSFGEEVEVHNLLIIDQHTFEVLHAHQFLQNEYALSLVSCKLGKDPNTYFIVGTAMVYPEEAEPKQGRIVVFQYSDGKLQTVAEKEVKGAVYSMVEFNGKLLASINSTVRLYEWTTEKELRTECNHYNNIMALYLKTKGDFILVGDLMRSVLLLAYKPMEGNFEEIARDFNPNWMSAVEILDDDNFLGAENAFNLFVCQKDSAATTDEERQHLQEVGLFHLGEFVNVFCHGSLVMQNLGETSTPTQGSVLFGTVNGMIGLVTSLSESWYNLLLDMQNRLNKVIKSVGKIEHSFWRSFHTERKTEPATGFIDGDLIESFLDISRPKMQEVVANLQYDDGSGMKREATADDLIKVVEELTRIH
T1 sequence (Q9NYV4 714-1063): as the sequence (Q9NYV4 714-1063, stated change not applied) above
T1 sequence (O75909 1-267 partner limits assumed): as the sequence (O75909 1-267 partner limits assumed) above

In the case of `Cn1cc(-n2cnc3c(NCc4nc5cc(Cl)c(Cl)cc5[nH]4)nc(N4CCOCC4)nc32)cn1` [SR-4835], the “ΔTm (elevation of melting temperature)” value in test [1] is “+4.1 °C”. In addition, the ΔTm result in test [2] is “+5.05 °C”.

For `CN(C)C/C=C/C(=O)Nc1ccc(C(=O)N2CCC[C@@H](Nc3ncc(Cl)c(-c4c[nH]c5ccccc45)n3)C2)cc1` [THZ531, reference compound], the “ΔTm (elevation of melting temperature)” value in test [1] is “+4.15 °C”. In addition, the ΔTm result in test [2] is “+2 °C”.
